We go through one molecule from US20260198495A1, “BINARY INSECTICIDE COMPOSITION AND USE THEREOF” (SHENYANG SINOCHEM AGROCHEMICALS R & D CO., LTD., priority 2022, published 2026).

Each structure is given as a SMILES string.

Format in all cases: in vivo
The test system of assay [1] is 3rd-instar larvae of Pyrausta nubilalis Hubern. Put plainly: Synergism assay (Bliss) of I-72 + cartap, monosultap, bisultap, Example 5, Table 5. Particulars: Ostrinia nubilalis, 72 h, read-out: Mortality rate (%). The method, then: Test subject: 3rd-instar larvae of Pyrausta nubilalis Hubern, a sensitive strain reared indoors.
Test conditions: temperature: 24-26° C., humidity: RH 60%, and illumination: L:D=14:10
Preparation method: the test pesticides were accurately weighed respectively with an electronic analytical balance. After the two technical materials were respectively added into an appropriate amount of solvent and completely dissolved, the stock solution of the required concentration was prepared with water containing 0.1% Tween 80. The stock solutions of the two active ingredients were mixed in a certain ratio to prepare a mixed solution, which was then diluted respectively into a series of pesticide solutions with a certain concentration gradient according to the experimental design dosage.
Experimental method: the artificial diet-pesticide film method was adopted. A standard clean 24-well culture plate was selected. 1 ml of artificial diet was added to each well. After the diet cooled and solidified, a quantitative amount of a pesticide solution was added to the culture plate using a continuous sampler, and then it was air-dried naturally in the shade. The standard test insects were introduced, with 1 insect in each well, a total of 48 insects. The treated test insects were placed in an observation room under certain conditions. The reaction of the test insects was regularly observed, and the number of dead and live insects was investigated 72 h later.
The evaluation method adopted was the Bliss method. This method is applicable to the qualitative screening of insecticidal compositions. According to the concept of independent joint action he proposed, Bliss believes that the theoretical mortality rate P when insecticides are used in combination can be calculated by the following formula: […]
Pm is the mortality rate (%) of the target when the first active ingredient is at a concentration of m; and Pn is the mortality rate (%) of the target when the second active ingredient is at a concentration of n.
(§1) If the actual mortality rate of the target after the two active ingredients are mixed at a certain concentration is greater than theoretical mortality rate P, it is determined that the two active ingredients have a synergistic effect when used in combination at the set concentration, and otherwise, they have an antagonistic effect.

For assay [2], the system named is adult Bemisia tabaci (Gennadius). Put plainly: Joint toxicity of I-72 + abamectin, seedling spraying, Example 13, Table 13. The note with it: Bemisia tabaci; adults, kidney bean seedling spraying, 72 h; A = compound I-72, B = abamectin; read-out: LC50. The source says:
Test subject: adult Bemisia tabaci (Gennadius), a sensitive strain reared indoors.
Experimental method: the spraying method was adopted. The kidney bean seedlings cultivated in the greenhouse were selected and evenly sprayed with the pesticide solution in the order from low dosage to high dosage according to the experimental design. After natural air-drying in the shade, a self-made glass cover was put on, and the test insects were introduced, with 20-30 insects for each treatment and 3 replicates. In addition, a blank control was set up. The number of dead and live insects was investigated 72 hours later. The corrected mortality rate was calculated using the Abbott's formula, and the DPS data processing software was used for statistical analysis to calculate the toxicities (LC50 values) of the single test pesticides and the mixtures under the test ratios.
The test conditions, the preparation of the pesticide solution and the evaluation method were the same as those in Example 1.
The test subject, the test method, the test conditions, the preparation of the pesticide solution and the evaluation method were the same as those in Example 12.

Assay [3] deals with 2nd-instar larvae of Plutella xylostella. Put plainly: Joint toxicity of I-72 + beta-cypermethrin, Example 43, Table 43. The note with it: in Brassica oleracea, foliar, 72 h. As for the experimental part:
(§2) Preparation of the pesticide solution: according to different test requirements, the test samples were accurately weighed respectively with an electronic analytical balance. The technical pesticides were dissolved in acetone, and then diluted with 0.1% Tween 80 water into a series of pesticide solutions with a certain concentration gradient according to the experimental design dosage.
Experimental method: first, cabbage leaves were selected and dipped in the prepared pesticide solution for 10 s in the order from low dosage to high dosage according to the experimental design. After natural air-drying in the shade, they were placed in a 9-cm-diameter Petri dish with filter paper, and uniform and healthy test insects were introduced, with 10 insects for each treatment and 3 replicates for each treatment. In addition, a blank control was set up.
The treated test materials were placed in an observation room, and the temperature, humidity and illumination of the observation room could be adjusted as needed. The number of dead and live insects was investigated 72 hours later.

The test system is the same in assay [4]. Put plainly: whole plant or invertebrate. The note with it: Plutella xylostella; single pesticide, 0.5 mg/L; 72 hours; read-out: Measured mortality rate. As for the experimental part: Test target: 2nd-instar larvae of Plutella xylostella.
as §2
Experimental method: first, cabbage leaves were selected and dipped in the prepared pesticide solution for 10 s in the order from low dosage to high dosage according to the experimental design. After natural air-drying in the shade, they were placed in a 9-cm-diameter Petri dish with filter paper, and uniform and healthy test insects were introduced, with 10 insects for each treatment and 3 replicates for each treatment. In addition, a blank control (CK) was set up.
The treated test materials were placed in an observation room, and the temperature, humidity and illumination of the observation room could be adjusted as needed. The number of dead and alive insects was investigated 72 hours later, and the corrected mortality rate was calculated using the Abbott's formula.
The synergism of the mixture was evaluated by the Bliss method. According to the concept of independent joint action he proposed, Bliss believes that the theoretical mortality rate P when insecticides are used in combination can be calculated by the following formula: […]
Pm is the measured mortality rate (%) of the target when the first active ingredient is at a concentration of m; and Pn is the measured mortality rate (%) of the target when the second active ingredient is used at a concentration of n.
as §1

Assay [5] deals with adult Bemisia tabaci (Gennadius). Put plainly: Joint toxicity of I-72 + pyraclostrobin, cotton seedling spraying, Example 83, Table 83. Particulars: A = compound I-72, B = pyraclostrobin, cotton seedling spraying, 72 hours, read-out: LC50. As for the experimental part:
as §2
The corrected mortality rate was calculated using the Abbott's formula, and statistical analysis was performed with the DPS data processing software to obtain the toxicity regression equation and LC50 value of each single test pesticide and each mixture of different ratios.

The next assay has as its system Rhizoctonia solani. Put plainly: Control efficacy against Rhizoctonia solani, rice seedling potting method, Example 89, Table 89. Particulars: rice seedlings, foliar spraying. The method, then: Control efficacy of the composition containing the compound I-72 against Rhizoctonia solani
Test target: Rhizoctonia solani, a sensitive strain cultured indoors.
The trial adopted the seedling potting method. Test crop: rice. Experimental method: the rice seedlings were cultured to the 2-leaf stage in the greenhouse of the experimental materials. Foliar spraying treatment was performed on the crop sprayer according to the designed dosage. The test target strain was inoculated 24 hours after the pesticide treatment. All the inoculated experimental materials were cultured in a phytotron. […] The disease grading and the calculation method of the control efficacy both referred to the agricultural industry standards of the People's Republic of China.

Take `CN(C(=O)c1ccc2c(c1)OC(F)(F)O2)c1cccc(C(=O)Nc2c(Br)cc(C(F)(C(F)(F)F)C(F)(F)F)cc2OC(F)F)c1F` [Compound I-72]: the mortality (usually the share of the test organisms that died) at 0.1 µg/mL in assay [1] (single agent 0.1 mg/L) came to 22.9%. Also, the mortality at 0.5 µg/mL in assay [1] (single agent 0.5 mg/L) came to 41.7%; in assay [4], 80%. Further, the mortality at 1 µg/mL in assay [1] (single agent 1 mg/L) worked out at 60.4%. In addition, the mortality at 2 µg/mL in assay [1] (single agent 2 mg/L) was 70.8%. Further, the mortality at 5 µg/mL in assay [1] (single agent 5 mg/L) turned out to be 87.5%. Besides, the values for the median lethal concentration (LC50) in assay [2], in assay [3] and in assay [5] were 2.97 µg/mL, 0.0897 µg/mL and 4.02 µg/mL, respectively. The Control efficacy worked out at 0% in the assay on Rhizoctonia solani (5 mg/L, A = compound I-72, B = coumoxystrobin); 0% in the assay on Rhizoctonia solani (5 mg/L, A = compound I-72, B = pyraoxystrobin); 0% with Rhizoctonia solani (10 mg/L, A = compound I-72, B = coumoxystrobin); 0% with Rhizoctonia solani (10 mg/L, A = compound I-72, B = pyraoxystrobin); 0% in the assay with Rhizoctonia solani (20 mg/L, A = compound I-72, B = coumoxystrobin); 0% in the assay on Rhizoctonia solani (20 mg/L, A = compound I-72, B = pyraoxystrobin).
